This note sets out measurements from ChEMBL document CHEMBL4184231, “Selective inhibition of monoamine oxidase A by hispidol” (Bioorg Med Chem Lett, 2018).

In series [1] the target is T1, Amine oxidase [flavin-containing] B (Homo sapiens, UniProt P27338).
T1 sequence (P27338 whole entry): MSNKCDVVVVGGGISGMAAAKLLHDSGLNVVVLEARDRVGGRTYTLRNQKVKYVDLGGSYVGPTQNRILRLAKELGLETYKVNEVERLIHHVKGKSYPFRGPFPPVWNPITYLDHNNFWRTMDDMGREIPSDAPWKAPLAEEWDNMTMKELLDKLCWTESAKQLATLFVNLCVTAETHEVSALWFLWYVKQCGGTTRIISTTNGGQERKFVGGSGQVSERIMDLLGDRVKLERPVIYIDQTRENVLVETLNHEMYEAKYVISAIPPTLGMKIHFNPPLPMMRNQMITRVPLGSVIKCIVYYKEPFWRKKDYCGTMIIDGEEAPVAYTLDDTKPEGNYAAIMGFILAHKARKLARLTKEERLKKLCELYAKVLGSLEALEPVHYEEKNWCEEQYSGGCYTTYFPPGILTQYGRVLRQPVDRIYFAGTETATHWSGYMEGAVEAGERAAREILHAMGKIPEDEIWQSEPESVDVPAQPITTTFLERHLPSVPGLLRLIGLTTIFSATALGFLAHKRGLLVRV
In words: Reversible inhibition of human recombinant MAOB assessed as residual enzyme activity at 5 uM pre-incubated with enzyme for 30 mins followed by dialysis with pH 7.2 sodium phosphate buffer for 6 hrs followed by 0.06 mM benzylamine substrate addition. The note with it: pH 7.2, 6 h.

Series [2] addresses T2, Amine oxidase [flavin-containing] A (Homo sapiens, UniProt P21397).
T2 sequence (P21397 whole entry): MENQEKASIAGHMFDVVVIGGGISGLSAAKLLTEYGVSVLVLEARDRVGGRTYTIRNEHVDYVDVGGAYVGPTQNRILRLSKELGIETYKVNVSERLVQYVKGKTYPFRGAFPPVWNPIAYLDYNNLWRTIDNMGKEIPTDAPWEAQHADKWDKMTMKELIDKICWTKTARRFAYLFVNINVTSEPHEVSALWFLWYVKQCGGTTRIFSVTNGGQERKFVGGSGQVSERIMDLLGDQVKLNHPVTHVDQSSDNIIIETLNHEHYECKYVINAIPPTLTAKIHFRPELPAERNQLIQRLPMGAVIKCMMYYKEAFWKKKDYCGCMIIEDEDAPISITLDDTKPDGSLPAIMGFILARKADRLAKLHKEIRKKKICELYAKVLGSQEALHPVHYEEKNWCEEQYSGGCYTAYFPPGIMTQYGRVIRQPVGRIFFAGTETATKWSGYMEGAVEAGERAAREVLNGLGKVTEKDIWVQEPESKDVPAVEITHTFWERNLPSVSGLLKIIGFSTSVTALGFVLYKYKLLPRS
In words: Reversible inhibition of human recombinant MAOA assessed as residual enzyme activity at 0.5 uM pre-incubated with enzyme for 30 mins followed by dialysis with pH 7.2 sodium phosphate buffer for 6 hrs followed by 0.06 mM kynuramine substrate addition. The following applies: read-out: INH.

Series [3] addresses T2, Amine oxidase [flavin-containing] A. Description: Competitive inhibition of human recombinant MAOA using 0.006 to […] kynuramine as substrate preincubated for 30 mins followed by substrate addition by Lineweaver-Burk plot.
For series [4] the target is unchanged. Description: Inhibition of human recombinant MAOA using kynuramine as substrate preincubated for 30 mins followed by substrate addition.
The target is the same in series [5]. Description: Time dependent inhibition of human recombinant MAOA using kynuramine as substrate preincubated for up to 30 mins followed by substrate addition.
Series [6] concerns the target T1, Amine oxidase [flavin-containing] B. In words: Inhibition of human recombinant MAOB assessed as residual enzyme activity at 5 uM pre-incubated for 30 mins followed by 0.06 mM benzylamine substrate addition.
Series [7] concerns the target T2, Amine oxidase [flavin-containing] A. In words: Inhibition of human recombinant MAOA assessed as residual enzyme activity at 0.5 uM pre-incubated for 30 mins followed by 0.06 mM kynuramine substrate addition. The following applies: read-out: INH.
For series [8] the target is unchanged. Description: Inhibition of human recombinant MAOA assessed as residual enzyme activity at 0.01 uM pre-incubated for 30 mins followed by 0.06 mM kynuramine substrate addition. The note with it: read-out: Activity.
Series [9] shares this target. Description: Irreversible inhibition of human recombinant MAOA assessed as residual enzyme activity at 0.01 uM pre-incubated with enzyme for 30 mins followed by dialysis with pH 7.2 sodium phosphate buffer for 6 hrs followed by 0.06 mM kynuramine substrate addition. The following applies: read-out: Activity.
The target in series [10] is T1, Amine oxidase [flavin-containing] B. In words: Reversible inhibition of human recombinant MAOB assessed as residual enzyme activity at 2 times IC50 pre-incubated with enzyme for 30 mins followed by dialysis with pH 7.2 sodium phosphate buffer for 6 hrs followed by 0.06 mM benzylamine substrate addition. The note with it: pH 7.2, 6 h.
The target is the same in series [11]. In words: Inhibition of human recombinant MAOB assessed as residual enzyme activity at 2 time IC50 pre-incubated for 30 mins followed by 0.06 mM benzylamine substrate addition.
Series [12] has the same target. Description: Inhibition of human recombinant MAOB at 80 uM using benzylamine as substrate preincubated for 30 mins followed by substrate addition.
For series [13] the target is unchanged. Description: Inhibition of human recombinant MAOB using benzylamine as substrate preincubated for 30 mins followed by substrate addition.
Series [14] is filed under the species Homo sapiens. In words: Selectivity index, ratio of IC50 for human recombinant MAOB to IC50 for human recombinant MAOA.
Series [15] addresses T2, Amine oxidase [flavin-containing] A. Description: Inhibition of human recombinant MAOA assessed as residual enzyme activity at 2 uM pre-incubated for 30 mins followed by 0.06 mM kynuramine substrate addition. The following applies: read-out: Activity.
Series [16] has the same target. In words: Reversible inhibition of human recombinant MAOA assessed as residual enzyme activity at 2 uM pre-incubated with enzyme for 30 mins followed by dialysis with pH 7.2 sodium phosphate buffer for 6 hrs followed by 0.06 mM kynuramine substrate addition. The following applies: read-out: Activity.

The structures appear in SMILES notation.

For the compound `O=C1/C(=C/c2ccc(O)cc2)Oc2cc(O)ccc21`, the Activity in series [1] was determined as 28%; in [6], 87.5%. Moreover, the figures for the activity at 0.5 µM in series [2] and in [7] were 83.7% and 29.8%, respectively. In addition, the Ki in series [3] came out at 100 nM. The IC50 in series [4] is 260 nM. In addition, in [5], the TDI entry is “Not Active”.

Take `COc1cc(O)c2c(=O)oc3cc(O)cc(C)c3c2c1`: in [4], the IC50 was 1710 nM.

`COc1ccc(-c2cc(=O)c3c(O)cc(O)cc3o2)cc1` [ACACETIN]: the IC50 in series [4] was found to be 190 nM.

Turning to `O=c1cc(-c2ccc(O)cc2)oc2cc(O)cc(O)c12` [APIGENIN], the IC50 in [4] turned out to be 1550 nM.

Turning to `C#CCN(C)CCCOc1ccc(Cl)cc1Cl` [CLORGILINE], the activity at 0.01 µM in series [8] was 18.3%; in series [9] it was 17.3%.

On to `CC(C)=CC(=O)O[C@H]1Cc2cc3ccc(=O)oc3cc2OC1(C)C` [DECURSIN], for which the IC50 in series [4] came out at 1760 nM.

For `NCCNC(=O)c1ccc(Cl)cn1` [LAZABEMIDE], the Activity in [10] is given as 35%; in series [11], 72.9%.

`O=C1/C(=C/c2ccc(O)c(O)c2)Oc2cc(O)ccc21` [SULFURETIN]: in [12], the inhibition at 80 µM is 20.8%. In addition, the IC50 in series [4] was 4160 nM; in [13], above 80000 nM. In addition, the TDI result in series [5] is “Not Active”. Further, the Ratio IC50 in series [14] is above 19.2.

For `Cc1cccc(N2CC(CO)OC2=O)c1` (configuration not stated) [TOLOXATONE], the activity at 2 µM in [15] was 75.4%; in series [16] it was 30.7%.
